Test results taken from patent US10233151B2, “Use of a novel 3-aryl-4-catechol-pyrrole-N-propanol compound and the derivatives thereof to treat cancer and diseases related to excessive angiogenesis” (Centre National de la Recherche Scientifique (CNRS), priority 2014, dated 2019).

How the values were obtained:
A549 cells = test: Cell growth test (CellTiter-Blue), A549; assay type: cell-based; settings: Homo sapiens; A549, normoxia, 72 hours; read-out: IC50 (50% decrease in cell growth)
Description: (§1) The biological activity of compound (1), as well as that of its structural analogues, was studied in vitro on 7 different cancer cell lines: • HCT-116 (colorectal cancer) • U87 (glioblastoma) • K562 (myeloid leukemia) and K562 R • MDA-MB 231 (mammary adenocarcinoma) • MCF-7 (mammary adenocarcinoma) • A549 (pulmonary alveolar adenocarcinoma)
(§2) The cells selected for this study were incubated at 37° C. in the presence of compound (1) added in the culture medium at various concentrations and at various times. The set of experiments carried out made it possible to determine the degree of cytotoxicity of the compound tested (IC50), its capacity to induce cell death by apoptosis, in close dependence on extracellular superoxide anion for its activation.
(§3) The effect of compound (1) on the growth of HCT-116, U87, K562, K562R, MDA-MB 231, MCF-7 and A549 cells, cultured in normoxia, was evaluated using a cell growth test (CellTiter-Blue™ Cell Viability Assay, Promega).

[1] = tested on: human glioblastoma (U87) grafted onto the chick embryo chorioallantoic membrane; test: In ovo tumor angiogenesis, glioblastoma grafted onto chick embryo chorioallantoic membrane (CAM); assay type: in vivo; settings: 50 μM, 20 μL on tumor every 24 hours
Description: The effect of compound (1) on tumor angiogenesis was evaluated using the in ovo model based on human tumor grafted onto chick embryo chorioallantoic membrane (CAM).
This experimental approach makes it possible in only a few days to evaluate the tumor's progression and level of vascularization.
(§4) At the tenth day of embryonic development, glioblastoma cells (U87, 5×10^6 in 20 μL) were deposited on the chorioallantoic membrane. Two days after the graft, compound (1) at a concentration of 50 μM in a volume of 20 μL was deposited on the surface of the tumor formed. This treatment was repeated every 24 hours for 5 days. The control group was treated with solvent. The test was carried out on 20 eggs bearing glioblastoma tumors for each group. Images of the tumors were taken at day 3 (24 hours after treatment), at day 5 (3 days after treatment) and at day 7 (5 days after treatment) of tumor development. […] In order to determine the antiangiogenic mechanism of compound (1), VEGF was assayed by the ELISA method (Invitrogen, Novex technology), from the culture supernatant of U87 and HCT-116 cells, under normoxic and hypoxic conditions.

[2] = tested on: endothelial cells (HUVEC); test: Survival of endothelial cells in proliferative or quiescent phase; assay type: cell-based, human; settings: 48 hours
Description: In order to understand the difference in the observed effects of compound (1) according to whether the vasculature is already formed or is growing “de novo”, vascular endothelial cells were cultured at two different cell densities so as to obtain proliferative phase cells or quiescent cells, then treated or not by compound (1), at 10 μM (IC50 value: 8 μM) for 48 hours. […] Compound (1) may thus be used to treat diseases associated with excessive and abnormal angiogenesis, like cancer or ARMD.

HCT-116 cells [3] = test: VEGF secretion by ELISA, HCT-116 culture supernatant; assay type: cell-based; settings: HCT-116, normoxic and hypoxic (2% O2) conditions, concentrations of 5 to 50, 24 hours
Description: as §4

HCT-116 cells [4] = test: Cell survival after SOD pretreatment; assay type: cell-based; settings: HCT-116, SOD1 50 U/ml 1 hour pretreatment
Description: (§5) In order to determine the role of superoxide anion, produced by the cells, in the activation of compound (1), HCT-116 cells were pretreated for 1 hour with the enzyme superoxide dismutase (SOD1) at 50 U/ml, then treated with compound (1). The cells were analyzed to evaluate, firstly, cell survival in normoxia (72 hours of treatment) and in hypoxia (48 hours of treatment). Secondly, the formation of condensed chromatin in normoxia and the activity of caspases 3 and 7 in normoxia were evaluated.

[5] = EPR competition with BMPO, superoxide anion from xanthine/xanthine oxidase (aqueous phase); assay type: biochemical; settings: xanthine oxidase 53 mU/mL + xanthine 250 μM in PBS pH 7.4, BMPO 50 mM, 10 minutes of incubation; read-out: IC50, inhibition of the formation of the BMPO superoxide adduct
Description: The reactivity of compound (1) with superoxide anion in the aqueous phase was also studied by EPR at room temperature using the same competition method with the trapping reagent BMPO at 50 mM (FIG. 1B). In this case, superoxide anion is produced by enzymatic reaction of xanthine oxidase (XO, 53 mU/mL) with xanthine (X, 250 μM) in PBS (pH 7.4) containing 0.1 mM ethylenediaminetetraacetic acid (EDTA). The concentrations used for compound (1) are between 0.34 μM and 43.1 μM. These experiments were carried out with an ELEXSYS E500 EPR spectrometer (Bruker, Wissembourg, France), operating at a frequency of 9.82 GHz (X-band) with the following parameters: magnetic field: 349.0 ±6.6 mT; sweep time: 41.94 s; sampling: 1024 points; time constant: 40.96 ms; conversion time: 40.96 ms; modulation amplitude: 0.10 mT; modulation frequency: 100 kHz; gain: 60 dB; microwave power: 10 mW.

[6] = tested on: caspases 3 and 7 in HL60 cells; test: Caspase 3 and 7 activity (ApoONE test), HL60; assay type: cell-based; settings: HL60, normoxia, 24 hours, 1 μM to 50 μM
Description: (§6) In order to specify whether compound (1) leads to apoptotic cell death, the activity of caspases 3 and 7, marker enzymes of apoptosis, was measured using the ApoONE test (Promega) in HCT-116, U87 and HL60 cells treated in normoxia for 24 hours with compound (1) at concentrations varying from 1 μM to 50 μM.

[7] = tested on: caspases 3 and 7 in HCT-116 cells; test: Caspase 3 and 7 activity (ApoONE test), HCT-116; assay type: cell-based
Description: as §6, §5

U87 cells = test: Cell growth test (CellTiter-Blue), U87; assay type: cell-based; settings: Homo sapiens, U-87 MG; U87, normoxia, 72 hours; read-out: IC50 (50% decrease in cell growth)
Description: as §1, §2, §3

HCT-116 cells [8] = test: Condensed chromatin (Hoechst 33258) after SOD pretreatment; assay type: cell-based; settings: HCT-116, SOD1 50 U/ml pretreatment, normoxia
Description: as §5

MDA-MB 231 cells = test: Cell growth test (CellTiter-Blue), MDA-MB 231; assay type: cell-based; settings: Homo sapiens; MDA-MB 231, normoxia, 72 hours; read-out: IC50 (50% decrease in cell growth)
Description: as §1, §2, §3

[9] = tested on: chick embryo chorioallantoic membrane; test: In ovo physiological angiogenesis on chick embryo chorioallantoic membrane; assay type: in vivo; settings: 20 μL of 50 μM solution on CAM, seventh day of embryonic development
Description: The effect of compound (1) on physiological angiogenesis was evaluated using the chick embryo chorioallantoic membrane (CAM) model which constitutes a richly vascularized tissue.
At the seventh day of embryonic development, 20 μL of the 50 μM solution of compound (1) was deposited on the chorioallantoic membrane whereas the control membranes were treated with solvent.

What does the source list for `OCCCn1cc(-c2ccccc2)c(-c2ccc(O)c(O)c2)c1` [compound (1)]?
IC50 (A549 cells): 15 µM; tumor vascularization ([1]; after 3 treatments (day 5), also day 7, vs control group): inhibition of tumor vascularization; growth of the treated tumor ([1]; day 7): significant inhibition of the growth of the treated tumor; effect on quiescent endothelial cells ([2]; 10 μM, quiescent cells): acts only on endothelial cells in the proliferative phase; inhibition at 10 µM ([2]; Homo sapiens, HUVEC, 10 μM, proliferative phase): 78%; IC50 ([2]; Homo sapiens, HUVEC, read-out: IC50 value, vascular endothelial cells): 8 µM; VEGF secretion (HCT-116 cells [3]): does not modify VEGF secretion; cytotoxic effect after SOD pretreatment (HCT-116 cells [4]; 10 μM, normoxia, 72 hours): completely blocks the cytotoxic effect; cytotoxic effect after SOD pretreatment (HCT-116 cells [4]; 25 μM, hypoxia, 48 hours): completely blocks the cytotoxic effect; IC50 [5]: 3.2 µM; activity of caspases 3 and 7 [6]: strongest activation; activation of caspases 3-7 after SOD pretreatment ([7]; HCT-116, SOD1 50 U/ml pretreatment, normoxia): completely suppressed; activity of caspases 3 and 7 ([7]; HCT-116, normoxia, 24 hours, 1 μM to 50 μM): significant activation of both caspases; IC50 (U87 cells): 7 µM; increase in condensed chromatin after SOD pretreatment (HCT-116 cells [8]): completely suppresses the increase in condensed chromatin; IC50 (MDA-MB 231 cells): 20 µM; effect on physiological angiogenesis [9]: absence of the effect
